Experimental data taken from EPA's ToxValDB 9.5 (doi:10.2903/j.efsa.2010.1905).
In brackets after ≈: the same amount, converted by molar mass.

Legend:
Colinus virginianus = details: for NOEC: reproduction developmental
Cyprinus carpio = details: acute; duration: 96 hours; mortality
Daphnia magna = details: chronic/long-term; duration: 21 days; reproduction
Neomysis kadiakensis = details: chronic/long-term; duration: 28 days; reproduction
Tagia sp. = details: acute; duration: 14 days; mortality
Anas platyrhynchos = details: oral, mortality
Apis mellifera = details: acute; oral; unspecified; mortality
Mus musculus = details: acute; oral; mortality
Pimephales promelas = details: chronic/long-term; duration: 32 days; growth
Aphidius rhopalosiphi = experiment: LR50; higher = less toxic; details: not reported; mortality
Typhlodromus pyri = experiment: LR50; higher = less toxic; details: not reported; mortality
[1] = subchronic, duration: 90 days, oral

| Structure (SMILES) | NOEC (Colinus virginianus) [mg/kg-day] | LC50 (Cyprinus carpio) [µg/mL] | NOEC (Daphnia magna) [mg/L] | NOEC (Neomysis kadiakensis) [mg/L] | NOAEL (Rattus norvegicus; reproduction developmental, reproduction) [mg/kg-day] | LC50 (Tagia sp.) [mg/kg] | LD50 (Anas platyrhynchos; acute, unspecified) [mg/kg-day] | LC50 (Anas platyrhynchos; short-term, feed) [mg/kg-day] | LD50 (Apis mellifera) [µg/piece] | LC50 (Colinus virginianus; acute, oral, diet, mortality) [mg/kg-day] | LD50 (Colinus virginianus; acute, oral, mortality) [mg/kg-day] | LD50 (Mus musculus) [mg/kg-day] | NOEC (Pimephales promelas) [mg/L] | NOAEL (Rattus norvegicus; chronic, mortality) [mg/kg-day] | NOAEL (Rattus norvegicus; developmental, development) [mg/kg-day] | NOAEL (Rattus norvegicus; [1]) [mg/kg-day] | LR50 (Aphidius rhopalosiphi) [g/ha] | LR50 (Typhlodromus pyri) [g/ha] |
| --- | --- | --- | --- | --- | --- | --- | --- | --- | --- | --- | --- | --- | --- | --- | --- | --- | --- | --- |
| CCCCOC(=O)C(C)Oc1ccc(Oc2ccc(C(F)(F)F)cn2)cc1 (configuration not stated) [Fluazifop-butyl] | 3.95 | 1.31 (≈ 3.42 µM) | 0.25 | 0.0477 | 6.72 | > 1000 |  |  |  |  |  |  |  |  |  |  |  |  |
| CCCCOC(=O)[C@@H](C)Oc1ccc(Oc2ccc(C(F)(F)F)cn2)cc1 [Fluazifop-P-butyl] | 86.8 |  |  |  |  |  | > 3960 | > 942 | > 200 | > 1070 | > 2000 | > 2000 | 0.077 | 6.72 | 2 | 0.9 | 177 | 5.6 |
| C[C@@H](Oc1ccc(Oc2ccc(C(F)(F)F)cn2)cc1)C(=O)O [Fluazifop-P] |  |  |  |  |  |  |  |  |  |  |  |  | 1.46 |  | 2 | 0.9 |  |  |
